From article PMC9862037, “Interactions of Mycotoxin Alternariol with Cytochrome P450 Enzymes and OATP Transporters” (Metabolites, 2022) come the findings set out here.

What is called IC50 is the concentration at which inhibition is half-maximal.

The target of data set [1] is OATP1B1 (Homo sapiens, UniProt Q9Y6L6). Description: cell-based. More on the design: expressed in transfected cells; host or cells: A431. The note with it: A431-OATP1B1; pyranine 10 µM; pH 5.5; 15 min; read-out: IC50, OATP1B1 inhibition. Here is the method: (§1) A431 cell lines overexpressing human OATPs (1A2, 1B1, 1B3, or 2B1) and their mock transfected controls were generated earlier. A431 cells expressed no or negligible OATPs compared to the overexpressing cell lines. Cells were cultured in Dulbecco’s modified Eagle medium (DMEM, Thermo Fisher Scientific, Waltham, MA, USA) with 10% fetal bovine serum, 2 mM L-glutamine, 100 U/mL penicillin, and 100 µg/mL streptomycin at 37 °C, with 5% CO2. OATP expression was regularly monitored (based on the transport activity of transfected cells), and the cells were used up to 20 passages.
OATP1B1, sequence (Q9Y6L6 whole entry): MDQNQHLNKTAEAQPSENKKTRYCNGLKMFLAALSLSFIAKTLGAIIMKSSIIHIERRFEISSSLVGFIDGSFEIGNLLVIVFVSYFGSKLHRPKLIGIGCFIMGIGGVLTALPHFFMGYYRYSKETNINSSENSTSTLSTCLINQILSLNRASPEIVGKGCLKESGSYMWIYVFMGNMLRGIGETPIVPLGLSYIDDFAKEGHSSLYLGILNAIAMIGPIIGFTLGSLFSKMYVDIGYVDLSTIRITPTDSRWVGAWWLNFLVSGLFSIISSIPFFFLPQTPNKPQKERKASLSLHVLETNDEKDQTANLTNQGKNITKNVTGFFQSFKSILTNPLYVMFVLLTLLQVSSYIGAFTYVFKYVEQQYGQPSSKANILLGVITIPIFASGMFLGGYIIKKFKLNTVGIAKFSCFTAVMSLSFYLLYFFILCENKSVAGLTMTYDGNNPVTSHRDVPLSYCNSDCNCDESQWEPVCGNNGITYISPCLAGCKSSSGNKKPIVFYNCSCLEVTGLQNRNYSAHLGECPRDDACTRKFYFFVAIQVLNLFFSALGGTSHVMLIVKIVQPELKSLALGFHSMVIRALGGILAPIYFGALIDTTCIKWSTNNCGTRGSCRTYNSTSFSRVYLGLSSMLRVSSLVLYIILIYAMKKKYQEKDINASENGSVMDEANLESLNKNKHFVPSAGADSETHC
Interaction between OATPs (1A2, 1B1, 1B3, and 2B1) and AOH was measured in an indirect transport assay with pyranine or sulforhodamine 101 as fluorescent probes. A431 cell overexpressing OATPs or their mock transfected controls were seeded on 96-well plates one day prior to the measurements in 200 µL DMEM in 8 × 10^4 cells/well density. […] Fluorescence was measured in an Enspire plate reader (Perkin Elmer, Waltham, MA, USA) in Ex/Em wavelengths 460/510 nm for pyranine and 586/605 nm for sulforhodamine 101. Bottom reading was applied with two horizontal (X) and two vertical (Y) points, measurement height was 3 mm with 200 flashes. IC50 values were calculated by sigmoidal fitting (Hill1), using the Origin (version 2018, OriginLab Corporation, Northampton, MA, USA) software.

For data set [2], the target named is T1, CYP2C9 (Homo sapiens, UniProt P11712).
T1 construct: purchased Merck; host or cells: yeast (inferred from the description of the CYPnull control, 'processed identically')
T1 sequence (P11712 whole entry): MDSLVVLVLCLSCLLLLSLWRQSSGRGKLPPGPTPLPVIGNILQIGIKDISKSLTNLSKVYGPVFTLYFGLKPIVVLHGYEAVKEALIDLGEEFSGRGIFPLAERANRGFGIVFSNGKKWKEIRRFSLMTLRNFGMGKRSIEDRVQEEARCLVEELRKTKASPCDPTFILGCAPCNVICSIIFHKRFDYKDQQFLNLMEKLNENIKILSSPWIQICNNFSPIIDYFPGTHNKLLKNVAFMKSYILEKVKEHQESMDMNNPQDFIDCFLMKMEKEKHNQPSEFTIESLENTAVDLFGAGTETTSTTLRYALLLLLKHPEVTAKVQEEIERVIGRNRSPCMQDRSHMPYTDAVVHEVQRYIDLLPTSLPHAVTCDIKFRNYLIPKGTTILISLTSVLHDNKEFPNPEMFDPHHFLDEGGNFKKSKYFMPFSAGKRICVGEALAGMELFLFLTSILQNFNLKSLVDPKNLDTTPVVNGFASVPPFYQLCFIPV
Description: biochemical. On the procedure: The potential inhibitory effects of AOH on CYP2C9, 2C19, 2D6, and 3A4 enzymes were tested in vitro employing CypExpress human kits, using the substrates recommended by the U.S. Food and Drug Administration (FDA; https://www.fda.gov/drugs/drug-interactions-labeling/drug-development-and-drug-interactions-table-substrates-inhibitors-and-inducers; accessed on 19 December 2022) (diclofenac, S-mephenytoin, dextromethorphan, and testosterone, respectively). […] In these assays, the substrates and products were quantified by HPLC-UV [28].
(§2) IC50 values were calculated by sigmoidal fitting (Hill1), using the Origin (version 2018, OriginLab Corporation, Northampton, MA, USA) software.
After CYP450 incubations, the product formation rate was investigated using an integrated HPLC system (Jasco, Tokyo, Japan) built up from an autosampler (AS-4050), a binary pump (PU-4180), and a UV detector (UV-975). Chromatographic data were evaluated employing ChromNAV2 software (Jasco, Tokyo, Japan). Quantitative determinations of 4′-hydroxydiclofenac and diclofenac (CYP2C9), 4-hydroxymephenytoin and mephenytoin (CYP2C19), dextromethorphan and dextrorphan (CYP2D6), as well as testosterone and 6β-hydroxytestosterone (CYP3A4) were carried out as previously reported, without modifications.

Data set [3] has as its target T2, OATP1A2 (Homo sapiens, UniProt P46721).
T2 construct: expressed in transfected cells; host or cells: A431
Description: cell-based. The following applies: A431-OATP1A2; sulforhodamine 101 0.5 µM; pH 7.4; 10 min; read-out: IC50, OATP1A2 inhibition. On the procedure: as §1
(§3) Interaction between OATPs (1A2, 1B1, 1B3, and 2B1) and AOH was measured in an indirect transport assay with pyranine or sulforhodamine 101 as fluorescent probes. A431 cell overexpressing OATPs or their mock transfected controls were seeded on 96-well plates one day prior to the measurements in 200 µL DMEM in 8 × 10^4 cells/well density. Before the measurement, the medium was removed, and cells were washed three times with 200 µL PBS (phosphate-buffered saline, pH 7.2) at room temperature. Then the cells were preincubated with 50 µL uptake buffer (125 mM NaCl, 4.8 mM KCl, 1.2 mM CaCl2, 1.2 mM KH2PO4, […], 25 mM MES, and 5.6 mM glucose, with the pH adjusted using 1 M HEPES and 10 N NaOH, pH 5.5 for OATP1B1/1B3/2B1 and pH 7.4 for OATP1A2) with or without increasing concentrations (0.00, 0.16, 0.31, 0.63, 1.25, 2.5, 5.0, 10, and 20 μM) of AOH for 5 min. The reaction was started when the probe was added in 10 µM (pyranine; OATP1B1), 20 µM (pyranine; OATP2B1 and OATP1B3), or 0.5 µM (sulforhodamine 101; OATP1A2) final concentrations. […] Fluorescence was measured in an Enspire plate reader (Perkin Elmer, Waltham, MA, USA) in Ex/Em wavelengths 460/510 nm for pyranine and 586/605 nm for sulforhodamine 101. Bottom reading was applied with two horizontal (X) and two vertical (Y) points, measurement height was 3 mm with 200 flashes. IC50 values were calculated by sigmoidal fitting (Hill1), using the Origin (version 2018, OriginLab Corporation, Northampton, MA, USA) software.

The target in data set [4] is T3, OATP1B3 (Homo sapiens, UniProt Q9NPD5).
T3 construct: expressed in transfected cells; host or cells: A431
T3 sequence (Q9NPD5 whole entry): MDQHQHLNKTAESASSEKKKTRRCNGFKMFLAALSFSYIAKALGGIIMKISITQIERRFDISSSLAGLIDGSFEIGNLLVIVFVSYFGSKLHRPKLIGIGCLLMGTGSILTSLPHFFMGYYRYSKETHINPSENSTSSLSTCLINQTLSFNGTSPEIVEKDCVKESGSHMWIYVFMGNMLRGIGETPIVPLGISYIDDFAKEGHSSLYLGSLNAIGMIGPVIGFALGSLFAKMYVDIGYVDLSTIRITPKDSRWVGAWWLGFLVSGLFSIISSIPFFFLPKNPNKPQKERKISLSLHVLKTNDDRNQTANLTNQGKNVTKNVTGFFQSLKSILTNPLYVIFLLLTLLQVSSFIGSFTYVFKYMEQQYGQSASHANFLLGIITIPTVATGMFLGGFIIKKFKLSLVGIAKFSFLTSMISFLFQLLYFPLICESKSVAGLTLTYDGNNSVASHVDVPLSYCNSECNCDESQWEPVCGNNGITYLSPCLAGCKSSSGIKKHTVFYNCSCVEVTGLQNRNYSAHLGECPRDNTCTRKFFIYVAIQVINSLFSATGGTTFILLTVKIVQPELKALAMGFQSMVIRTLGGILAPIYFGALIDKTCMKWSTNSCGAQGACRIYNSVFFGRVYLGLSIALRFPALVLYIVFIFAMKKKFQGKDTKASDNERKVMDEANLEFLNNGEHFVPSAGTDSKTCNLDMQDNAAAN
Description: cell-based. The following applies: A431-OATP1B3; pyranine 20 µM; pH 5.5; 30 min; read-out: IC50, OATP1B3 inhibition. On the procedure: as §1, §3

The target of data set [5] is T4, OATP2B1 (Homo sapiens, UniProt O94956).
T4 construct: expressed in transfected cells; host or cells: A431
T4 sequence (O94956 whole entry): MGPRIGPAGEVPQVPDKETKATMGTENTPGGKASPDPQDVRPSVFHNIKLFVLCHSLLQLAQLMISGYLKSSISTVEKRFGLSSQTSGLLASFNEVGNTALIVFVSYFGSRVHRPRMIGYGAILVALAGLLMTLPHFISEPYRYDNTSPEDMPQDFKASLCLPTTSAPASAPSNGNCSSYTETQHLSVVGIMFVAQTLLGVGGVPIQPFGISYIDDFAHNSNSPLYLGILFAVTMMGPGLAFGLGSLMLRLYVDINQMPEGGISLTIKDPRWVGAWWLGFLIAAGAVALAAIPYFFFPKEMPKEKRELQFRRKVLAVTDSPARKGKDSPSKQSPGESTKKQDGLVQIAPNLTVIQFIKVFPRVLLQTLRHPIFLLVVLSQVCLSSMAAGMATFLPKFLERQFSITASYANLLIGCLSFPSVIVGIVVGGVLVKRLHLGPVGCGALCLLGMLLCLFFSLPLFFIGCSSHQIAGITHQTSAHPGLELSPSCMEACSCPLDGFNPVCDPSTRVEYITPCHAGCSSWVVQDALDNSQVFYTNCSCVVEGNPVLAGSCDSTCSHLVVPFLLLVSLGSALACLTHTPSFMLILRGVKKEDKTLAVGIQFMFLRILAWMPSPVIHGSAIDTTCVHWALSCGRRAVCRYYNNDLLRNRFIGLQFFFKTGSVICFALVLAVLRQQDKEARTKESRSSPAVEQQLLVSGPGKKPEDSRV
Description: cell-based. The following applies: A431-OATP2B1; pyranine 20 µM; pH 5.5; 15 min; read-out: IC50, OATP2B1 inhibition. Here is the method:
as §1, §3

The target in data set [6] is T5, CYP1A2 (Homo sapiens, UniProt P05177).
T5 construct: purchased Abcam ab211075
T5 sequence (P05177 whole entry): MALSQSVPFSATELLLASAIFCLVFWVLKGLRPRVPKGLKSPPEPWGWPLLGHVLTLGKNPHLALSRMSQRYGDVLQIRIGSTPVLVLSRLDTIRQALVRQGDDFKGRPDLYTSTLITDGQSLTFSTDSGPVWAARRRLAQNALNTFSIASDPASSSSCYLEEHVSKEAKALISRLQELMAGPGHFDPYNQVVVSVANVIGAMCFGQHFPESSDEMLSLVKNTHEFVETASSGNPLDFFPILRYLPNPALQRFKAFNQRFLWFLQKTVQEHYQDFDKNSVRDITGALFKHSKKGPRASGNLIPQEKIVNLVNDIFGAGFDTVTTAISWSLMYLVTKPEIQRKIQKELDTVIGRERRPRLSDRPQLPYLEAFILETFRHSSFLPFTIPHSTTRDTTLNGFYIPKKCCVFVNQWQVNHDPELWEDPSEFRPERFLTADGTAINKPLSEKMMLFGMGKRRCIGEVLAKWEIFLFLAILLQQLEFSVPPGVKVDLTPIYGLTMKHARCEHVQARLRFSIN
Description: biochemical. On the procedure:
CYP1A2 Inhibitor Assay Kit (Abcam; Cambridge, UK) was applied following the manufacturer’s description, where the inhibitory action of 0.000, 0.001, 0.010, 0.050, 0.10, 0.20, 0.50, 1.25, 3.0, 10, and 25 μM AOH concentrations were tested.
as §2

T2 sequence (P46721 whole entry): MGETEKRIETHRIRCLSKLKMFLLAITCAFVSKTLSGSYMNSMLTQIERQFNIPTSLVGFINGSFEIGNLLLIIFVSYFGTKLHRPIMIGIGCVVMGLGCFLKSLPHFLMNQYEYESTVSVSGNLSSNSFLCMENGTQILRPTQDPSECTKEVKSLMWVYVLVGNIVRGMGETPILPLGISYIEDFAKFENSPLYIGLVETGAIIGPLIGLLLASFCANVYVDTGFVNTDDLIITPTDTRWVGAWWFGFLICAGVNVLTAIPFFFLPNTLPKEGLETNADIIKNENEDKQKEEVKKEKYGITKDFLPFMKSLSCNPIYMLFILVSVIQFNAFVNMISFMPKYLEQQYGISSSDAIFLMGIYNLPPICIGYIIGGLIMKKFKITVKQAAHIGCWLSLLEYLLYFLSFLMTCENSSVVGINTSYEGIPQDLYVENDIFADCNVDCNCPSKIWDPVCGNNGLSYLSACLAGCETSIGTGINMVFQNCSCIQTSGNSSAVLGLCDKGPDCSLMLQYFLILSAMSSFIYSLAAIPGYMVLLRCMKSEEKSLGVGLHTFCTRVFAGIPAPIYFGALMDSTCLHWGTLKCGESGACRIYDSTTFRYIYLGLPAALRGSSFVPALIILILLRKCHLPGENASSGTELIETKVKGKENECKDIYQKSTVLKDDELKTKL

Turning to `Cc1cc(O)cc2oc(=O)c3c(O)cc(O)cc3c12` [AOH, Alternariol], the IC50 worked out at 2 µM in data set [1]; 7.4 µM in data set [2] (diclofenac 4'-hydroxylation, read-out: IC50, CYP2C9 inhibition); 5.4 µM in data set [3]; 4.1 µM in data set [4]; 1.9 µM in data set [5]; 0.15 µM in data set [6] (fluorometric kit, AOH 0-25 μM, read-out: IC50, CYP1A2 inhibition). Moreover, in data set [2] (50 μM AOH), the “decrease in the product formation (CYP2C9)” value is listed as above 80%. Also, the “CYP1A2 inhibition at 0.05 μM” value in data set [6] (0.05 μM AOH, p < 0.01) was “statistically significant”. The “CYP1A2 inhibition at 10 μM” value in data set [6] (10 μM AOH) is on record as “close to complete”.
